Laboratory results: patent publication US20250144050A1, “AMINOTHIOL-CONJUGATES, COMPOSITIONS, AND METHODS OF USE THEREOF” (THE BURLINGTON HC RESEARCH GROUP, INC., priority 2021, published 2025)
Like-named read-outs stand apart in the source and are kept apart here.

Assays:
H1437 NSCLC cells = experiment: Alamar Blue (resazurin) cellular reducing capacity; format: cell-based, human; settings: until cell numbers reduced to approximately 50% of controls
Description: The aminothiol-conjugates of the present disclosure (e.g., 4SP65 and 1LP65) are disulfides that require reduction by glutathione or thioredoxin for the two constituent molecules (WR1065 and PEG-SH scaffold) to be released. […] After an aminothiol-conjugate of the present disclosure (e.g., 4SP65 and 1LP65) enters the cytoplasm, either glutathione or thioredoxin reduces the BRG disulfide bond (Rxn #1) to yield reduced WR1065 and PEG-SH scaffold. In normal cells with a reducing cytosolic redox balance, evidence of formation of free radical intermediates during this reaction has not been reported, but formation of […] has been reported (Nagy, P., “Kinetics and Mechanisms of Thiol-Disulfide Exchange Covering Direct Substitution and Thiol Oxidation-Mediated Pathways,” Antioxid Redox Signal 18 (13): 1623-1641 (2013), which is hereby incorporated by reference in its entirety). Conversely, in cancer cells where the cellular environment is shifted towards oxidizing conditions, there is evidence that reactive species such as thiyl free radicals can be formed (Nagy, P., “Kinetics and Mechanisms of Thiol-Disulfide Exchange Covering Direct Substitution and Thiol Oxidation-Mediated Pathways,” Antioxid. Redox Signal 18 (13): 1623-1641 (2013), which is hereby incorporated by reference in its entirety), which can have adverse effects in neoplastic cells. […]

A549 NSCLC cells = settings: 48 h; for GI50 / IC50 / LC99 / TGI: each drug alone
[1] = tested on: Normal human mammary epithelial cells (M99005); experiment: Trypan Blue cell count, normal cells, 48 hours; format: cell-based
Protocol: For comparison purposes, the growth inhibitory does of 4SP65 required to reduce the growth of normal human mammary epithelial cells by 50% was above 300 micromolar. The exact value has not been determined as of yet due to the fact that 4SP65 forms a hydrogel in medium when present at a concentration that exceeds 300 micromolar.
Normal human mammary epithelial cells were grown as described in Example 1, with the exception that the growth medium was as MEBM (purchased from American Type Tissue Culture Collection). When the cells had reach 50 to 60%, the growth medium was removed and medium supplemented with 0 to 300 microM 4SP65 was added to each well containing cells. At 48 hours, the cells were removed by trypsinization stained with Trypan Blue, and counted using a hemocytometer. […] The finding of a biphasic growth inhibition curve for WR-1065 has been reported previously (Calabro-Jones et al. “The limits to radioprotection of Chinese hamster V79 cells by WR-1065 under aerobic conditions.” Radiat Res. 149:550-559 (1998), which is hereby incorporated by reference in its entirety). Additional experiments now have been completed and are described infra).

[2] = tested on: HMESO-1 malignant mesothelioma cells; format: cell-based
Protocol: (§1) Trypan Blue exclusion was applied as a complementary confirmation probe for cell death.
(§2) Statistical comparisons of differences in individual dose-response metrics between individual/paired drug treatments and various cell lines were conducted using the Student's t-test, with P-values <0.05 considered significant.
(§3) Relative cell growth inhibition values for differing levels each drug alone and in combination were input into SynergyFinder to generated dose-response curves for each drug alone, to produce a dose-response matrix, to visualize the distribution of areas of differing degrees of synergism in a 2-dimension heatmap and 3-dimension volcano plot, and to calculate average and maximum synergy scores in selected human cancer cell lines. […] Synergy scores <10 means that the interaction between two drugs was likely to be antagonistic; scores from −10 to 10 means the interaction between two drugs was likely to be additive; and scores >10 means the interaction between two drugs was likely to be synergistic.

[3] = tested on: PPM-Mill malignant mesothelioma cells; format: cell-based
Protocol: as §1, §2, §3

[4] = PPM-Mill, each drug alone, 48 h

## 4-star PEG-S-S-WR1065 [4SP65]
H1437 NSCLC cells
  cellular reducing capacity relative to control cells: ~100%
A549 NSCLC cells; 4SP65-cisplatin combined
  LC99, amount of each drug in combination: 8 µM
A549 NSCLC cells; cisplatin series
  GI50: 5.4 ± 2.5 µM
  IC50: 6.8 ± 1.3 µM
  LC99: 14.9 ± 3.8 µM
  TGI: 8.3 ± 1.5 µM
A549 NSCLC cells; gefitinib series
  GI50: 6 ± 0.6 µM
  IC50: 7.4 ± 0.7 µM
  LC99: 12.3 ± 3.8 µM
  TGI: 11.3 ± 1.5 µM
[1]; 0 to 300 microM except 100 microM, 48 hours
  inhibition of cell growth: No inhibition of cell growth was observed
[1]; normal human mammary epithelial cells, read-out: growth inhibitory dose required to reduce growth by 50%
  EC50: > 300 µM
[2]
  CC50: 7 ± 0.1 µM
[2]; HMESO-1, each drug alone, 48 h
  GI50: 2 ± 0.3 µM
  IC50: 4.7 ± 0.2 µM
  LC99: 12.4 ± 0.1 µM
  TGI: 4.3 ± 0.2 µM
[3]
  CC50: 16.2 ± 3.2 µM
[3]; [4]
  GI50: 8.4 ± 1.5 µM
  IC50: 10 ± 1.9 µM
  LC99: 17.6 ± 3.5 µM
  TGI: 14.1 ± 3.3 µM
